Assay results: patent publication US11370773B1, “Inhibiting human integrin (alpha-4) (beta-7)” (Morphic Therapeutic, Inc., priority 2019, dated 2022)

target: T1, α4β7 (Homo sapiens, UniProt P13612+P26010); experiment: Cell adhesion assay, RPMI8866 cells adhering to MAdCAM coated plates; type: cell-based; details: RPMI8866 cells on recombinant human MAdCAM coated plates; read-out: CA Assay (Example 7) IC50
T1 construct: α4β7 expressing cells (RPMI-8866); endogenous in cells; host or cells: RPMI 8866
T1 sequence (P13612 34-1032): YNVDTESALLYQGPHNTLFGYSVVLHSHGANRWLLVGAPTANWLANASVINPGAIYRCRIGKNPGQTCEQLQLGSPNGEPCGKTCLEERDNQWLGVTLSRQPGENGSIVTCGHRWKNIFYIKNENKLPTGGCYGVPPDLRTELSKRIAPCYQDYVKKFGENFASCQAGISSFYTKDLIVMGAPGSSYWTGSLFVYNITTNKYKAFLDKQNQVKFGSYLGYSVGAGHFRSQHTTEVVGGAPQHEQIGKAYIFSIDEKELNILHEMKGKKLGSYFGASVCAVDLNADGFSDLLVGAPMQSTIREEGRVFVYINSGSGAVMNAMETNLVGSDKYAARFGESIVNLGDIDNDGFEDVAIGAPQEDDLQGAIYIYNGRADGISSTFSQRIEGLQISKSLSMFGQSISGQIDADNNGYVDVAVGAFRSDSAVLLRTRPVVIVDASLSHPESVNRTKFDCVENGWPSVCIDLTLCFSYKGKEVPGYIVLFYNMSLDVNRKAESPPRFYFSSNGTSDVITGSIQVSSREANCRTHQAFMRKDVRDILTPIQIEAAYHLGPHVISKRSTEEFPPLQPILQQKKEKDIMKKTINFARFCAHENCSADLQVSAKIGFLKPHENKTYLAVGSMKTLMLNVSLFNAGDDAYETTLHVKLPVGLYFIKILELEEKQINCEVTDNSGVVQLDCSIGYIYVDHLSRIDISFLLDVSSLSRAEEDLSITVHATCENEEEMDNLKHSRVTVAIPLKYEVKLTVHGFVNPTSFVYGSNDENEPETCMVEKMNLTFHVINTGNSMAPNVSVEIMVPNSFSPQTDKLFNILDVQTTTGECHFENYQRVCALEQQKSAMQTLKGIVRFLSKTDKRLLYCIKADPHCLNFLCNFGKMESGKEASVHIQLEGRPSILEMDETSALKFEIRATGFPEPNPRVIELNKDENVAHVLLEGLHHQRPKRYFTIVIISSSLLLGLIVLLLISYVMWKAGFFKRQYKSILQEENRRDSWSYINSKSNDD
T1 sequence (P26010 20-798): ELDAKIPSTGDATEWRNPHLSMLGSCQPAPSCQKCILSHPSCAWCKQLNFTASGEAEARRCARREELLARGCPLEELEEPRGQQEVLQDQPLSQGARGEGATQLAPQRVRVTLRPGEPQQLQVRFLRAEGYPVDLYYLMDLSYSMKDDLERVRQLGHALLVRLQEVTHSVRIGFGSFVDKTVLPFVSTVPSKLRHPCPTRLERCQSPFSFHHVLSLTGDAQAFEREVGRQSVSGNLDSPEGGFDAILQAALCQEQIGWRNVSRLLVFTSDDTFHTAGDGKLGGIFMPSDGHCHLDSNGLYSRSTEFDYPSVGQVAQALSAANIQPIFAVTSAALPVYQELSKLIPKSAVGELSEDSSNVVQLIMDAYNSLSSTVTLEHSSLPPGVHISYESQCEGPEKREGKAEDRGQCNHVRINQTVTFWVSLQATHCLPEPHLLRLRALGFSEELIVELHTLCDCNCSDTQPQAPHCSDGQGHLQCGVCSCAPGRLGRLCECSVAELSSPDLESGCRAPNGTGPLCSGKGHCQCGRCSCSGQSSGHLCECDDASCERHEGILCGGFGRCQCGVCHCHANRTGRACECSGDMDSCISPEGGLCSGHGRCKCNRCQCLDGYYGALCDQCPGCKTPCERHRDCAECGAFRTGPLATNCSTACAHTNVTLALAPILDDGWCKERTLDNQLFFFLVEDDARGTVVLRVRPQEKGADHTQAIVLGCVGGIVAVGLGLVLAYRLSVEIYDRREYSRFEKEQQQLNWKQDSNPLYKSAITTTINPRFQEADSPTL
Protocol: Three in vitro assays were used to examine the α4β7 mechanistic process used by cells: 1) ligand:receptor affinity, 2) the avidity of those interactions on a cell's surface, and 3) how those interactions fare under an imposing force. In Example 5, a Fluorescence Polarization (FP) assay is used to measure compound activity through binding competition with the fluorescein-labeled peptide. In Example 6, the potency of compounds against α4β7 is measured in the cell-based ligand binding assay (LBA), using RPMI 8866 cells incubated with the compound samples in competition with soluble MAdCAM-1 ligand. In Example 7, activity of compounds is evaluated in a cell adhesion assay that mechanistically tests what occurs in vivo when trafficking cells utilize α4β7 to adhere to MAdCAM-1 expressing HEVs of the gut during the extravasation process. In the cell adhesion assay of Example 7, a MAdCAM1-(Fc) is coated on plastic, and α4β7 expressing cells (RPMI-8866) are allowed to adhere to the coated surface in the presence of the test compounds. Next, the force of washing with buffer is applied to cells thereby testing the strength of that adhesion. Unattached cells are removed and the remaining adherent cells are quantified.
Example 7 describes a cell adhesion assay.
To each well of a 96 well plate, 100 ug of recombinant human MAdCAM in 100 ul PBS is added and incubated overnight at 4° C. After incubation MAdCAM is removed by aspiration and 200 ul of PBS+1% BSA is added to block the plate for 2 hours at 37° C. and 5% CO2. During this incubation dilution curves of compound are made in 100% DMSO in 96 well V bottom plates. 1.75 ul of diluted compounds are then transferred to a new 96 well U bottom plate containing 20 ul of assay media (phosphate free DMEM+25 mM HEPES+1% BSA). To this an additional 155 ul of assay media is added with mixing by pipetting up and down. This mixture is allowed to incubate for 15 minutes at 37° C. and 5% CO2. After incubation 175 ul of assay media containing 2e6/mL RPMI8866 cells is added to compound containing wells without mixing and plate is allowed to incubate for another 15 minutes at 37° C. and 5% CO2. During this incubation MAdCAM coated plates are removed from incubator and washed twice with 200 ul PBS+0.1% BSA. […] This plate is then incubated at 37° C. and 5% CO2 for 1 hour. After incubation plates are washed twice with 200 ul and once with 50 ul of phenol free RPMI+1% BSA. A final 50 ul of phenol free RPMI+1% BSA is added to wells after last wash. Next 50 ul of Promega cell titer glow is added to the wells. Plate is incubated on shaker for 2 minutes at 200 RPM followed by another 8 minutes off shaker before having the luminescence read on a Biotek Citation 5 plate reader. Raw data is converted to % inhibition compared to bottom of curve and analyzed using a 4-parameter non linear curve in Prism to determine IC50 and IC90.

IC50	SMILES
5 to 10 nM	Cc1cc(C)c(-c2cc(C)c(F)c([C@H](CC(=O)O)NC(=O)[C@H](CC(C)C)n3cc(CCCN(C)C)c(C(F)(F)F)cc3=O)c2F)c(C)c1F [IW-P2, (3S)-3-(2-(5-(3-(dimethylamino)propyl)-2-oxo-4-(trifluoromethyl)pyridin-1(2H)-yl)-4-methylpentanamido)-3-(2,3′,4-trifluoro-2′,4′,5,6′-tetramethyl-[1,1′-biphenyl]-3-yl)propanoic Acid]
< 5 nM	Cc1cc(F)c(C)c(C)c1-c1cc(C(F)(F)F)c(F)c([C@H](CC(=O)O)NC(=O)[C@H](CC(C)C)n2cc(CCN3CCC3)c(C(F)(F)F)cc2=O)c1F [KT-P2, (3S)-3-(2-(5-(2-(azetidin-1-yl)ethyl)-2-oxo-4-(trifluoromethyl)pyridin-1(2H)-yl)-4-methylpentanamido)-3-(2,4,4′-trifluoro-2′,3′,6′-trimethyl-5-(trifluoromethyl)-[1,1′-biphenyl]-3-yl)propanoic Acid]
10 to 50 nM	Cc1ccn([C@@H](NC(C)C)C(=O)N[C@@H](CC(=O)O)c2cncc(-c3c(C)cccc3C)c2)c(=O)c1 [Example C-7, reference compound]
< 5 nM	Cc1cc(C)c(-c2cc(C(F)(F)F)c(F)c([C@H](CC(=O)O)NC(=O)[C@H](CC(C)C)n3cc(CCN(C)C)c(C(F)(F)F)cc3=O)c2F)c(C)c1 [IF-P2, (3S)-3-(2,4-difluoro-2′,4′,6′-trimethyl-5-(trifluoromethyl)-[1,1′-biphenyl]-3-yl)-3-(2-(5-(2-(dimethylamino)ethyl)-2-oxo-4-(trifluoromethyl)pyridin-1(2H)-yl)-4-methylpentanamido)propanoic Acid]
5 to 10 nM	Cc1ccc(F)c(C)c1-c1cc(C2CC2)c(F)c([C@H](CC(=O)O)NC(=O)[C@H](CC(C)C)n2cc(CCN3CCC3)c(C(F)(F)F)cc2=O)c1F [HH-P2, (3S)-3-(2-(5-(2-(azetidin-1-yl)ethyl)-2-oxo-4-(trifluoromethyl)pyridin-1(2H)-yl)-4-methylpentanamido)-3-(5-cyclopropyl-2,3′,4-trifluoro-2′,6′-dimethyl-[1,1′-biphenyl]-3-yl)propanoic Acid]
< 5 nM	Cc1cc(-c2c(C)cc(F)cc2C)cc([C@H](CC(=O)O)NC(=O)[C@H](CC(C)C)n2cc(CCN(C)C)cc(C(F)F)c2=O)c1F [I-P2, (3S)-3-(4,4′-difluoro-2′,5,6′-trimethyl-[1,1′-biphenyl]-3-yl)-3-(2-(3-(difluoromethyl)-5-(2-(dimethylamino)ethyl)-2-oxopyridin-1(2H)-yl)-4-methylpentanamido)propanoic Acid]
< 5 nM	Cc1cc(C)c(-c2cc(C(F)(F)F)c(F)c([C@H](CC(=O)O)NC(=O)[C@H](CC(C)C)n3cc(CCN4CCC4)c(C(F)(F)F)cc3=O)c2F)c(C)c1 [IG-P2, (3S)-3-(2-(5-(2-(azetidin-1-yl)ethyl)-2-oxo-4-(trifluoromethyl)pyridin-1(2H)-yl)-4-methylpentanamido)-3-(2,4-difluoro-2′,4′,6′-trimethyl-5-(trifluoromethyl)biphenyl-3-yl)propanoic Acid]
5 to 10 nM	Cc1cc(C2CC2)cc(C)c1-c1cc(C(F)(F)F)c(F)c([C@H](CC(=O)O)NC(=O)[C@H](CC(C)C)n2cc(CCCN(C)C)c(C(F)(F)F)cc2=O)c1F [HU-P2, (3S)-3-(4′-cyclopropyl-2,4-difluoro-2′,6′-dimethyl-5-(trifluoromethyl)-[1,1′-biphenyl]-3-yl)-3-(2-(5-(3-(dimethylamino)propyl)-2-oxo-4-(trifluoromethyl)pyridin-1(2H)-yl)-4-methylpentanamido)propanoic Acid]
< 5 nM	Cc1cc(F)cc(C)c1-c1cc(C(F)(F)F)c(F)c([C@H](CC(=O)O)NC(=O)[C@H](CC(C)C)n2cc(CCCN(C)C)c(C(F)(F)F)cc2=O)c1F [HW-P2, (3S)-3-(2-(5-(3-(dimethylamino)propyl)-2-oxo-4-(trifluoromethyl)pyridin-1(2H)-yl)-4-methylpentanamido)-3-(2,4,4′-trifluoro-2′,6′-dimethyl-5-(trifluoromethyl)-[1,1′-biphenyl]-3-yl)propanoic Acid]
5 to 10 nM	Cc1cc(C)c(-c2cc(C(F)(F)F)c(F)c([C@H](CC(=O)O)NC(=O)[C@H](CC(C)C)n3cc(CCCN(C)C)c(C(F)(F)F)cc3=O)c2F)c(C)c1 [HZ-P2, (3S)-3-(2,4-difluoro-2′,4′,6′-trimethyl-5-(trifluoromethyl)biphenyl-3-yl)-3-(2-(5-(3-(dimethylamino)propyl)-2-oxo-4-(trifluoromethyl)pyridin-1(2H)-yl)-4-methylpentanamido)propanoic Acid]
< 5 nM	Cc1cc(C)c(-c2cc(C3CC3)c(F)c([C@H](CC(=O)O)NC(=O)[C@H](CC(C)C)n3cc(CCN4CCC4)c(C(F)(F)F)cc3=O)c2F)c(C)c1 [HM-P2, (3S)-3-(2-(5-(2-(azetidin-1-yl)ethyl)-2-oxo-4-(trifluoromethyl)pyridin-1(2H)-yl)-4-methylpentanamido)-3-(5-cyclopropyl-2,4-difluoro-2′,4′,6′-trimethylbiphenyl-3-yl)propanoic Acid]
